According to the supplement of paper PMC10307832:

Experiments:
Experiment in all cases: relative viability (nuclei count vs DMSO), 5 days (fraction); higher = more cells survive
Vemurafenib + Pictilisib = compound: CCCS(=O)(=O)Nc1ccc(F)c(C(=O)c2c[nH]c3ncc(-c4ccc(Cl)cc4)cc23)c1F [Vemurafenib] + CS(=O)(=O)N1CCN(Cc2cc3nc(-c4cccc5[nH]ncc45)nc(N4CCOCC4)c3s2)CC1 [Pictilisib] (partner 1 µM)
Procedure, shortened: (§1)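 A single step with final 0.05% Triton X-100, 1% formaldehyde and 1 ug/ml Hoechst fixed the cells and stained nuclei 5 days after treatment. Lung cancer cell lines in 1536-well plates had been treated by pin tool the day after seeding with one drug alone or a fixed anchor-drug dose plus five library-drug doses (not always all listed) in √10 steps, and nuclei were counted on 4× images. Relative viability is the ratio of nuclei in treated wells to nuclei in vehicle wells, taken as the median of duplicate plates.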

OSI-027 + Trametinib = compound: COc1cccc2cc(-c3nc([C@H]4CC[C@H](C(=O)O)CC4)n4ncnc(N)c34)[nH]c12 [OSI-027] + CC(=O)Nc1cccc(-n2c(=O)n(C3CC3)c(=O)c3c(Nc4ccc(I)cc4F)n(C)c(=O)c(C)c32)c1 [Trametinib] (partner 0.02 µM)
Procedure, shortened: as §1

OSI-027 + Crizotinib = compound: COc1cccc2cc(-c3nc([C@H]4CC[C@H](C(=O)O)CC4)n4ncnc(N)c34)[nH]c12 [OSI-027] + C[C@@H](Oc1cc(-c2cnn(C3CCNCC3)c2)cnc1N)c1c(Cl)ccc(F)c1Cl [Crizotinib] (partner 1 µM)
Procedure, shortened: as §1

Alpelisib + OSI-027 = compound: Cc1nc(NC(=O)N2CCC[C@H]2C(N)=O)sc1-c1ccnc(C(C)(C)C(F)(F)F)c1 [Alpelisib] + COc1cccc2cc(-c3nc([C@H]4CC[C@H](C(=O)O)CC4)n4ncnc(N)c34)[nH]c12 [OSI-027] (partner 0.5 µM)
Procedure, shortened: as §1

Cell Line | relative viability (Vemurafenib + Pictilisib; first compound 0.03162 µM) | relative viability (Vemurafenib + Pictilisib; first compound 0.1 µM) | relative viability (Vemurafenib + Pictilisib; first compound 0.3162 µM) | relative viability (Vemurafenib + Pictilisib; first compound 1 µM) | relative viability (OSI-027 + Trametinib; first compound 0.01 µM) | relative viability (OSI-027 + Trametinib; first compound 0.03162 µM) | relative viability (OSI-027 + Trametinib; first compound 0.1 µM) | relative viability (OSI-027 + Trametinib; first compound 0.3162 µM) | relative viability (OSI-027 + Trametinib; first compound 1 µM) | relative viability (OSI-027 + Crizotinib; first compound 0.01 µM) | relative viability (OSI-027 + Crizotinib; first compound 0.03162 µM) | relative viability (OSI-027 + Crizotinib; first compound 0.1 µM) | relative viability (OSI-027 + Crizotinib; first compound 0.3162 µM) | relative viability (OSI-027 + Crizotinib; first compound 1 µM) | relative viability (Alpelisib + OSI-027; first compound 0.04 µM) | relative viability (Alpelisib + OSI-027; first compound 0.1265 µM) | relative viability (Alpelisib + OSI-027; first compound 0.4 µM) | relative viability (Alpelisib + OSI-027; first compound 1.265 µM) | relative viability (Alpelisib + OSI-027; first compound 4 µM)
NCI-H2126 | 0.494 | 0.4 | 0.572 | 0.471 | 0.54 | 0.593 | 0.526 | 0.447 | 0.537 | 1.04 | 0.986 | 0.996 | 0.915 | 0.664 | 0.796 | 0.67 | 0.667 | 0.576 | 0.38
NCI-H2170 | 0.305 | 0.157 | 0.254 | 0.293 | 1.02 | 0.901 | 0.807 | 0.746 | 0.267 | 1.31 | 1.07 | 0.986 | 1.1 | 0.552 | 0.695 | 0.612 | 0.663 | 0.589 | 0.39
NCI-H2228 | 0.32 | 0.362 | 0.684 | 0.358 | 0.409 | 0.499 | 0.507 | 0.326 | 0.284 | 0.525 | 0.524 | 0.485 |  | 0.239 | 0.612 | 0.53 | 0.385 | 0.239 | 0.152
NCI-H2347 | 0.328 | 0.659 | 0.754 | 0.667 | 0.29 | 0.25 | 0.268 | 0.278 | 0.205 | 0.668 | 0.609 | 0.673 | 0.388 | 0.405 | 0.484 | 0.398 | 0.356 | 0.3 | 0.233
NCI-H2405 | 0.347 | 0.467 |  | 0.48 | 0.643 | 0.663 | 0.597 | 0.471 | 0.373 | 0.856 | 0.729 | 0.814 | 0.631 | 0.338 | 0.588 | 0.534 | 0.639 | 0.417 | 0.384
NCI-H3122 | 0.596 | 0.596 | 0.798 | 0.69 | 0.273 | 0.238 | 0.178 | 0.191 | 0.097 | 0.261 | 0.26 | 0.266 | 0.215 | 0.163 | 0.928 | 0.791 | 0.648 | 0.37 | 0.176
PC-3 [JPC-3] | 0.649 |  | 0.857 | 0.82 | 0.616 | 0.651 | 0.599 | 0.603 | 0.437 | 0.999 | 0.943 | 1.02 | 0.984 | 0.551 | 0.831 | 0.642 | 0.68 | 0.593 | 0.488
PC-14 | 0.584 |  | 0.805 | 0.696 | 0.793 | 0.934 | 0.71 | 0.649 | 0.282 | 1 | 0.898 | 0.95 | 0.934 | 0.581 | 0.865 | 0.83 | 0.985 | 0.574 | 0.467
RERF-LC-KJ | 0.838 | 0.464 | 0.707 | 0.597 | 0.709 | 0.832 | 0.815 | 0.667 | 0.406 | 0.884 | 0.938 | 0.861 | 0.805 | 0.484 | 0.482 | 0.547 | 0.507 | 0.393 | 0.347
SK-LU-1 | 0.545 | 0.567 |  | 0.532 | 0.458 | 0.491 | 0.457 | 0.334 | 0.327 | 0.937 | 0.789 | 0.644 | 0.531 | 0.358 | 0.378 | 0.297 | 0.29 | 0.219 | 0.201
SK-MES-1 | 0.322 | 0.192 | 0.354 | 0.347 | 0.531 | 0.523 | 0.478 | 0.483 | 0.394 | 0.995 | 0.933 | 0.997 | 0.965 | 0.52 | 0.57 | 0.541 | 0.553 | 0.442 | 0.351
SW 1573 | 0.475 | 0.511 | 0.585 | 0.52 | 0.711 | 0.543 | 0.491 | 0.409 | 0.411 | 0.855 | 0.832 | 0.687 | 0.655 | 0.566 | 0.661 | 0.438 | 0.571 | 0.404 | 0.337
